Measurements as given in patent US11135457B2, “Skincare compositions” (Reckitt Benckiser Healthcare International Limited, priority 2009, dated 2021).

Assays:
Assay type in all cases: cell-based
IL-8 = test: In vitro EpiDerm skin model, PMA irritant: IL-8 release; conditions: no PMA irritant (first IL-8 column, c6)
Method: (§1) The purpose of the in vitro testing was to evaluate the potential anti-inflammatory action of compositions according to the present invention.
(§2) In vitro tests were carried out as follows: • take an irritant treated EpiDerm™ skin model. Initial inflammation was measured by the cytokine release after exposure to a single dose of irritant. • apply test compositions to the irritant treated EpiDerm skin • anti-inflammatory potential was then measured by reduction in cytokine release • specifically, the levels of cytokines TNF-α, IL-6 and IL-8 were measured to give a picture of the performance of the product across the lifecycle of an acne event or related skin inflammation.
(§3) Experimental design follows standard procedures, using phorbol-12-myristate 13-acetate (PMA) as irritant. Test samples were applied by pipette as solutions to the Epiderm tissue, and each sample was tested in triplicate against positive and negative controls. Anti-inflammatory activity measured by relative decrease in cytokine release in irritant-treated tissue compared to non-irritant treated tissue.
(§4) The separate active components of an example according to the invention were tested, along with some combinations in pairs and one combination lacking the salicylic acid. Where these actives were applied, they were in the same w/w ratio as in the example composition, example 9.

TNF-α = test: In vitro EpiDerm skin model, PMA irritant: TNF-α release; conditions: for TNFα + PMA / TNFα no PMA: EpiDerm skin model; for TNFα + PMA: + PMA irritant; for TNFα no PMA: no PMA irritant
Method: as §1, §2, §3, §4

EpiDerm skin model = test: MTT viability, EpiDerm skin model
IL-6 = test: In vitro EpiDerm skin model, PMA irritant: IL-6 release; conditions: for IL-6 + PMA: + PMA irritant; for IL-6 no PMA: no PMA irritant
Method: as §1, §2, §3, §4

Structure (SMILES)	IL-8 no PMA (IL-8) [pg/mL]	TNFα + PMA (TNF-α) [pg/mL]	TNFα no PMA (TNF-α) [pg/mL]	MTT < 95% (EpiDerm skin model) [%]	IL-6 + PMA (IL-6) [pg/mL]	IL-6 no PMA (IL-6) [pg/mL]	anti-inflammatory action (reduction in cytokine release) (TNF-α; irritant (PMA) treated EpiDerm skin model, cytokines TNF-α, IL-6 and IL-8 taken together)
O=C(O)c1ccccc1O [Salicylic acid (SCA)]	72.757	12.265	-0.068	103.2	6.159	-1.445	
CC(O)C(=O)[O-].[Na+] (stereo not drawn) [Sodium Lactate (SLA)]	104.549	92.434	0.882	99.1	22.6	4.909	
O=C(O)c1ccccc1O [salicylic acid, reference compound]							acts inter alia as an anti-inflammatory
CC1(C)[C@@H](O[C@H]2O[C@H](C(=O)[O-])[C@@H](O)[C@H](O)[C@H]2O[C@@H]2O[C@H](C(=O)[O-])[C@@H](O)[C@H](O)[C@H]2O)CC[C@]2(C)[C@H]3C(=O)C=C4[C@@H]5C[C@@](C)(C(=O)O)CC[C@]5(C)CC[C@@]4(C)[C@]3(C)CC[C@@H]12.[K+].[K+] [Dipotassium glycyrrhizinate (GLYR)]	44.413	78.48	-0.636	93.7	7.591	-1.781	
NC(=O)c1cccnc1 [Nicotinamide (NA)]	47.54	40.202	-0.171	96.8	-2.712	-4.294	
C[C@]12CCC(=O)C=C1CC[C@@H]1[C@@H]2[C@@H](O)C[C@@]2(C)[C@H]1CC[C@]2(O)C(=O)CO [Positive control (hydrocortisone)]		-0.378			-4.358		
